Tested on: rat heart tissue
Test: GENECALLING differential gene expression analysis after dosing of serotonin modulating agents
Assay type: in vivo, Sprague Dawley rats
Method in brief: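 Rats dosed with serotonin modulating agents, controls given sterile water or canola oil; tissue taken 24 h after the last dose. Total RNA converted to cDNA and profiled by GENECALLING differential expression analysis; fragments changed more than ±1.5-fold were selected.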

CC(C)CC(N(C)C)C1(c2ccc(Cl)cc2)CCC1 (stereo not shown) [sibutramine]
Effects on Transcription Level: Novel gene fragment, 467 bp, 94% SI to mouse gelsolin [J04953] (CARDIOTOX 70): −1.7 fold
Effects on Transcription Level: Novel gene fragment, 535 bp, 90% SI to mouse slow/cardiac troponin C [M29793] (CARDIOTOX 71): −1.9 fold
Effects on Transcription Level: Novel gene fragment, 445 bp, 85% SI to human skeletal muscle alpha 2 actinin [M86406] (CARDIOTOX 72): −2.2 fold
Effects on Transcription Level: Novel gene fragment, 246 bp, 89% SI to mouse ponsin-1 [AF078667] (CARDIOTOX 73): −2.8 fold
Effects on Transcription Level: Novel gene fragment, 126 bp, 77% SI to human DNA sequence from cosmid V311G7, between markers DXS366 and DXS87 on chromosome X [Z69304] (CARDIOTOX 74): +2.2 fold
Effects on Transcription Level: Novel gene fragment, 370 bp (CARDIOTOX 75): −1.9 fold
Effects on Transcription Level: Novel gene fragment, 337 bp, 78% SI to novel human protein AHNAK [M80899] (CARDIOTOX 76): −3.5 fold
Effects on Transcription Level: Novel gene fragment, 100 bp, 93% SI to human KIAA0750 protein [ABO18293] (CARDIOTOX 77): −8.4 fold
Effects on Transcription Level: Novel gene fragment, 44 bp (CARDIOTOX 78): −2.9 fold
Effects on Transcription Level: Novel gene fragment, 698 bp, 93% SI to mouse plenty-of-prolines-101 [AF062655] (CARDIOTOX 79): −2.3 fold
Effects on Transcription Level: Novel gene fragment, 660 bp, 84% SI to mouse membrane protein TMS-2 [AF181685] (CARDIOTOX 80): −1.9 fold
Effects on Transcription Level: Novel gene fragment, 115 bp (CARDIOTOX 81): −13.1 fold
Effects on Transcription Level: Novel gene fragment, 294 bp, 95% SI to mouse Ndr1 related protein Ndr2 [AB033921] (CARDIOTOX 82): −3.3 fold
Effects on Transcription Level: Novel gene fragment, 198 bp (CARDIOTOX 83): +3.1 fold
Effects on Transcription Level: Novel gene fragment, 730 bp, 86% SI to mouse E800 [Y10968] (CARDIOTOX 84): −2.1 fold
Effects on Transcription Level: Novel gene fragment, 294 bp, 98% SI to cysteine conjugate beta-lyase [S61960] (CARDIOTOX 85): −2.1 fold
Effects on Transcription Level: Aconitase (CARDIOTOX 86, GenBank A1243266): −2.9 fold
Effects on Transcription Level: Ribosomal protein L7 (CARDIOTOX 87, GenBank M17422): +3.7 fold
Effects on Transcription Level: Ribosomal protein L9 (CARDIOTOX 88, GenBank X51706): +8.0 fold
Effects on Transcription Level: Ribosomal protein L12 (CARDIOTOX 89, GenBank X53504): −1.5 fold
Effects on Transcription Level: 18S, 5.8S, and 28S ribosomal RNA's (CARDIOTOX 90, GenBank V01270): +6 fold
Effects on Transcription Level: Pyruvate dehydrogenase kinase 2 (PDK2) (CARDIOTOX 91, GenBank U10357): −9.5 fold
Effects on Transcription Level: D-Binding Protein (DBP) (CARDIOTOX 92, GenBank J03179): −1.7 fold
Effects on Transcription Level: Lipoprotein lipase (CARDIOTOX 93, GenBank L03294): −2.5 fold
Effects on Transcription Level: Non-neuronal enolase (CARDIOTOX 94, GenBank X02610): +3.1 fold
Effects on Transcription Level: Glycogen phosphorylase (muscle isozyme) (CARDIOTOX 95, GenBank L10669): −2.0 fold
Effects on Transcription Level: Cytochrome c oxidase subunit IV (CARDIOTOX 96, GenBank X14209): +8.0 fold
Effects on Transcription Level: Alpha-globin (CARDIOTOX 97, GenBank M17083): +7.0 fold
Effects on Transcription Level: Beta-globin (CARDIOTOX 98, GenBank X06701): +5.0 fold
Effects on Transcription Level: Myoglobin (CARDIOTOX 99, GenBank AF197916): +7.0 fold
Effects on Transcription Level: Titin (CARDIOTOX 100, GenBank L38717): +1.5 fold
Effects on Transcription Level: Skeletal muscle actin (CARDIOTOX 101, GenBank V01218): −3.8 fold
Effects on Transcription Level: Myosin light chain 2 (MLC2) (CARDIOTOX 102, GenBank M11851): +1.9 fold
Effects on Transcription Level: Alpha cardiac myosin heavy chain (CARDIOTOX 103, GenBank X15938): −3.2 fold
Effects on Transcription Level: Troponin I (CARDIOTOX 104, GenBank U77354): +1.6 fold
Effects on Transcription Level: Cardiac calsequestrin (CARDIOTOX 105, GenBank AF001334): −2.5 fold
Effects on Transcription Level: Sulfated glycoprotein 2 (CARDIOTOX 106, GenBank M16975): −1.5 fold
Effects on Transcription Level: Aquaporin 7 (CARDIOTOX 107, GenBank AB000507): +1.6 fold
Effects on Transcription Level: Carnitine/acylcarnitine carrier protein (CARDIOTOX 108, GenBank X97831): −1.9 fold
Effects on Transcription Level: Glu-Pro Dipeptide Repeat (CARDIOTOX 109, GenBank U40628): −5.5 fold
Effects on Transcription Level: Cystatin beta (CARDIOTOX 110, GenBank X54737): +3.1 fold
Effects on Transcription Level: Novel gene fragment, 593 bp, 90% SI to human calcineurin B-like protein [Z08983] (CARDIOTOX 111): +2.1 fold
Effects on Transcription Level: Novel gene fragment, 179 bp, 88% SI to human titin [X90568] (CARDIOTOX 112): −2.0 fold
Effects on Transcription Level: Novel gene fragment, 700 bp, 91% SI to mouse periplakin (PPL) [AF116523] (CARDIOTOX 113): +2.2 fold
Effects on Transcription Level: Long chain acyl-CoA dehydrogenase (LCAD) (CARDIOTOX 114, GenBank J05029): +1.8 fold
Effects on Transcription Level: Sulfated glycoprotein 1 (SGP-1) (CARDIOTOX 115, GenBank M19936): −2.3 fold
Effects on Transcription Level: Catalase (CARDIOTOX 116, GenBank M11670): +1.8 fold
Effects on Transcription Level: Alpha-fodrin (A2A) (Nonerythroid spectrin alpha subunit) (CARDIOTOX 117, GenBank AF084186): +5.0 fold
Effects on Transcription Level: Cardiac specific sodium channel alpha-subunit (CARDIOTOX 118, GenBank M27902): −2.9 fold
Effects on Transcription Level: Glu-Pro Dipeptide Repeat (CARDIOTOX 119, GenBank U40628): +6.0 fold
Effects on Transcription Level: Novel gene fragment, 200 bp, 64% SI to human KIAA0733 protein [AB018316] (CARDIOTOX 120): −1.5 fold
Effects on Transcription Level: RNA polymerase II transcription factor SIII (p18 subunit) (CARDIOTOX 121, GenBank L42855): +2.0 fold
Effects on Transcription Level: Protein-tyrosine phosphalase (LRP) (CARDIOTOX 122, GenBank L01702): +1.5 fold
Effects on Transcription Level: Skeletal muscle selenoprotein W (SelW) (CARDIOTOX 123, GenBank U25264): −1.5 fold
Effects on Transcription Level: Sarcoplasmic reticulum 2+-Ca-ATPase (CARDIOTOX 124, GenBank X15635): −2.0 fold
Effects on Transcription Level: Ribosomal protein S7 (CARDIOTOX 125, GenBank X53377): +1.8 fold
Effects on Transcription Level: Ribophorin I (CARDIOTOX 126, GenBank X05300): +1.6 fold
Effects on Transcription Level: Beta cardiac myosin heavy chain (CARDIOTOX 127, GenBank X15939): −1.7 fold
Effects on Transcription Level: ADP-ribosylation factor 1 (CARDIOTOX 128, GenBank L12380): −2.0 fold
Effects on Transcription Level: Laminin receptor (CARDIOTOX 129, GenBank U04942): +4.6 fold
Effects on Transcription Level: Novel gene fragment, 206 bp, 89% SI to human seryl-tRNA synthetase [X91257] (CARDIOTOX 130): +1.4 fold
Effects on Transcription Level: Annexin VI (CARDIOTOX 131, GenBank X86086): +1.4 fold
Effects on Transcription Level: Novel gene fragment, 325 bp, 90% SI to mouse N-RAP [U76618] (CARDIOTOX 132): −1.1 fold
Effects on Transcription Level: Novel gene fragment, 61 bp (CARDIOTOX 134) (LD10 dose for three days): +1.0 fold
Effects on Transcription Level: Novel gene fragment, 337 bp (CARDIOTOX 133) (LD10 dose for three days): −1.1 fold
Effects on Transcription Level: Novel gene fragment, 378 bp, 88% SI to human coatomer protein (COPA) [U24105] (CARDIOTOX 138) (LD10 dose for three days): −2.3 fold
Effects on Transcription Level: Long chain 3-ketoacyl-CoA thiolase (CARDIOTOX 136) (LD10 dose for three days, GenBank D16479): −2.0 fold
Effects on Transcription Level: TATA-binding protein interacting protein 120 (TIP120) (CARDIOTOX 135) (LD10 dose for three days, GenBank D87671): +1.3 fold
Effects on Transcription Level: Serine protease (CARDIOTOX 139) (LD10 dose for three days, GenBank D88250): +1.3 fold
Effects on Transcription Level: Thymosin beta-4 (CARDIOTOX 137) (LD10 dose for three days, GenBank M34043): +1.5 fold
